Test results reported in US20250302821A1, “SYNERGISTIC ANTIFUNGAL COMPOSITION AND METHOD” (ST. JUDE CHILDREN'S RESEARCH HOSPITAL, INC., priority 2022, published 2025).

Experiments:
fungi = test: fungicidal activity of NK1-antagonists alone; format: cell-based; details: NK1-antagonist alone, at higher concentrations
[1] = test system: resistant Candida auris strains; details: with fluconazole, voriconazole, itraconazole, cited from earlier work

| SMILES | independent fungicidal activity (fungi) | synergistic enhancement of triazole antifungal activity ([1]; C. auris) | restoration of triazole susceptibility ([1]; several resistant Candida auris strains) |
| --- | --- | --- | --- |
| C[C@@H](OC[C@@]1(c2ccccc2)CC[C@]2(CCC(=O)N2)CN1)c1cc(C(F)(F)F)cc(C(F)(F)F)c1 [rolapitant, (5S,8S)-8-[[(1R)-1-[3,5-bis(trifluoromethyl)phenyl]ethoxy]methyl]-8-phenyl-1,9-diazaspiro[4. 5]decan-2-one] | fungicidal activity | – | – |
| Cc1ccccc1-c1cc(N2CCN(C)CC2)ncc1N(C)C(=O)C(C)(C)c1cc(C(F)(F)F)cc(C(F)(F)F)c1 [netupitant, 2-[3,5-bis(trifluoromethyl)phenyl]-N, 2-dimethyl-N-[4-(2-methylphenyl)-6-(4-methylpiperazin-1-yl)pyridin-3-yl]propanamide] | fungicidal activity | – | – |
| C[C@@H](O[C@H]1OCCN(Cc2nc(=O)[nH][nH]2)[C@H]1c1ccc(F)cc1)c1cc(C(F)(F)F)cc(C(F)(F)F)c1 [aprepitant, 5-[[(2R,3S)-2-[(1R)-1-[3,5-bis(trifluoromethyl)phenyl]ethoxy]-3-(4-fluorophenyl)-4-morpholinyl]methyl]-1,2-dihydro-3H-1,2,4-triazol-3-one] | – | synergistically enhance the activity | restore fluconazole-, voriconazole-, and itraconazole-susceptibility |
